Measured values taken from PubChem BioAssay (NCI).
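A five-concentration, 48-hour dose response in 96-well plates underlies each endpoint, interpolated linearly between surrounding concentrations. GI50 = concentration required for 50% inhibition of growth. TGI is the concentration that stops growth completely.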

What was measured:
Experiment in all cases: NCI-60 cell line screen, 48 h
NCI-H460 lung = test system: NCI-H460 lung
NCI/ADR-RES ovarian = test system: NCI/ADR-RES ovarian
SF-295 CNS = test system: SF-295 CNS
HL-60(TB) leukemia = test system: HL-60(TB) leukemia
SW-620 colon = test system: SW-620 colon
SK-MEL-5 melanoma = test system: SK-MEL-5 melanoma
CAKI-1 renal = test system: CAKI-1 renal
K-562 leukemia = test system: K-562 leukemia
MCF7 breast = test system: MCF7 breast
SF-268 CNS = test system: SF-268 CNS

Cc1cn(C2CCC(CO)(CF)O2)c(=O)[nH]c1=O (configuration not stated)
TGI (NCI-H460 lung): > 100 µM
TGI (NCI/ADR-RES ovarian): > 100 µM
TGI (SF-295 CNS): > 100 µM
TGI (HL-60(TB) leukemia): > 100 µM
TGI (SW-620 colon): > 100 µM
TGI (SK-MEL-5 melanoma): > 100 µM
TGI (CAKI-1 renal): > 100 µM
TGI (K-562 leukemia): > 100 µM
TGI (MCF7 breast): > 100 µM
TGI (SF-268 CNS): > 100 µM

CC(C)(C)OC(=O)N/C(C=O)=C\C1CCCCC1
TGI (NCI-H460 lung): 40.6 µM
TGI (NCI/ADR-RES ovarian): 44.3 µM
TGI (SF-295 CNS): 99.3 µM
TGI (HL-60(TB) leukemia): 65.4 µM
TGI (SW-620 colon): > 100 µM
TGI (SK-MEL-5 melanoma): 31.3 µM
TGI (CAKI-1 renal): 46.9 µM
TGI (K-562 leukemia): 46.2 µM
TGI (MCF7 breast): 72.8 µM
TGI (SF-268 CNS): 52.3 µM

COC(=O)C1=C(OC(=O)/C(=C/c2ccccc2)c2ccc(OC)cc2)C(C(=O)OC)[C@@]2(O)[C@@H](C(=O)OC)[C@H](C)C[C@@H]1[C@@H]2C(=O)OC (some centres not stated)
TGI (NCI-H460 lung): > 100 µM
TGI (NCI/ADR-RES ovarian): > 100 µM
TGI (SF-295 CNS): > 100 µM
TGI (HL-60(TB) leukemia): > 100 µM
TGI (SW-620 colon): > 100 µM
TGI (SK-MEL-5 melanoma): > 100 µM
TGI (CAKI-1 renal): > 100 µM
TGI (K-562 leukemia): > 100 µM
TGI (MCF7 breast): > 100 µM
TGI (SF-268 CNS): > 100 µM

C1=NCCNCCNCCN=Cc2ccc(cc2)OCc2cccc(n2)COc2ccc1cc2
TGI (NCI-H460 lung): > 100 µM
TGI (NCI/ADR-RES ovarian): > 100 µM
TGI (SF-295 CNS): > 100 µM
TGI (HL-60(TB) leukemia): > 100 µM
TGI (SW-620 colon): > 100 µM
TGI (SK-MEL-5 melanoma): > 100 µM
TGI (CAKI-1 renal): > 100 µM
TGI (K-562 leukemia): > 100 µM
TGI (MCF7 breast): > 100 µM
TGI (SF-268 CNS): > 100 µM

Fc1cccc(F)c1C1SCc2nc3cc(Cl)c(Cl)cc3n21 (configuration not stated)
TGI (NCI-H460 lung): > 100 µM
TGI (NCI/ADR-RES ovarian): > 100 µM
TGI (SF-295 CNS): > 100 µM
TGI (HL-60(TB) leukemia): > 100 µM
TGI (SW-620 colon): > 100 µM
TGI (SK-MEL-5 melanoma): > 100 µM
TGI (CAKI-1 renal): > 100 µM
TGI (K-562 leukemia): > 100 µM
TGI (MCF7 breast): > 100 µM
TGI (SF-268 CNS): > 100 µM

O=P1(N2CCOCC2)OCCO1
TGI (NCI-H460 lung): > 100 µM
TGI (NCI/ADR-RES ovarian): > 100 µM
TGI (SF-295 CNS): > 100 µM
TGI (HL-60(TB) leukemia): > 100 µM
TGI (SW-620 colon): > 100 µM
TGI (SK-MEL-5 melanoma): > 100 µM
TGI (CAKI-1 renal): > 100 µM
TGI (K-562 leukemia): > 100 µM
TGI (MCF7 breast): > 100 µM
TGI (SF-268 CNS): > 100 µM

CC(C)(C)C1CCC2c3c([nH]c4ccccc34)C3C(=O)N(c4ccc(C#N)cc4)C(=O)C3C2C1 (configuration not stated)
TGI (NCI-H460 lung): 17.1 µM
TGI (NCI/ADR-RES ovarian): 53.5 µM
TGI (SF-295 CNS): > 100 µM
TGI (HL-60(TB) leukemia): 15 µM
TGI (SW-620 colon): 39.7 µM
TGI (SK-MEL-5 melanoma): 25.5 µM
TGI (CAKI-1 renal): 61 µM
TGI (K-562 leukemia): 30.4 µM
TGI (MCF7 breast): > 100 µM
TGI (SF-268 CNS): 29.3 µM

COc1ccc(-n2c(=O)c3[nH]c(=S)[nH]c3n(-c3ccc(OC)cc3)c2=S)cc1
TGI (NCI-H460 lung): > 100 µM
TGI (NCI/ADR-RES ovarian): > 100 µM
TGI (SF-295 CNS): > 100 µM
TGI (HL-60(TB) leukemia): > 100 µM
TGI (SW-620 colon): > 100 µM
TGI (SK-MEL-5 melanoma): > 100 µM
TGI (CAKI-1 renal): > 100 µM
TGI (K-562 leukemia): > 100 µM
TGI (MCF7 breast): > 100 µM
TGI (SF-268 CNS): > 100 µM

COc1cc(/C=C2\CC/C(=C\c3cc(OC)c(O)c(OC)c3)C2=O)cc(OC)c1O
TGI (NCI-H460 lung): > 100 µM
TGI (NCI/ADR-RES ovarian): 13.9 µM
TGI (SF-295 CNS): > 100 µM
TGI (HL-60(TB) leukemia): 8.62 µM
TGI (SW-620 colon): > 100 µM
TGI (SK-MEL-5 melanoma): 5.57 µM
TGI (CAKI-1 renal): 7.32 µM
TGI (K-562 leukemia): 14.2 µM
TGI (MCF7 breast): > 26.7 µM
TGI (SF-268 CNS): 36.5 µM

COc1ccc(C#Cn2nnc3ccccc32)cc1
TGI (NCI-H460 lung): > 100 µM
TGI (NCI/ADR-RES ovarian): > 100 µM
TGI (SF-295 CNS): > 100 µM
TGI (HL-60(TB) leukemia): 60.6 µM
TGI (SW-620 colon): > 100 µM
TGI (SK-MEL-5 melanoma): > 100 µM
TGI (CAKI-1 renal): > 100 µM
TGI (K-562 leukemia): > 100 µM
TGI (MCF7 breast): > 100 µM
TGI (SF-268 CNS): > 100 µM

CC[C@@]1(O)C(=O)OCc2c1cc1n(c2=O)Cc2c-1nc1ccc(O)cc1c2[Si](C)(C)C(C)(C)C
TGI (NCI-H460 lung): 0.0263 µM
TGI (NCI/ADR-RES ovarian): 4.64 µM
TGI (SF-295 CNS): 1.32 µM
TGI (HL-60(TB) leukemia): < 0.01 µM
TGI (SW-620 colon): 10.9 µM
TGI (SK-MEL-5 melanoma): 0.0387 µM
TGI (CAKI-1 renal): < 0.0137 µM
TGI (K-562 leukemia): > 94.5 µM
TGI (MCF7 breast): > 41.2 µM
TGI (SF-268 CNS): 0.804 µM

Cc1cc(S(=O)(=O)Nc2nc3ncccc3[nH]2)c(S)cc1Cl
TGI (NCI-H460 lung): > 100 µM
TGI (NCI/ADR-RES ovarian): > 100 µM
TGI (SF-295 CNS): > 100 µM
TGI (HL-60(TB) leukemia): > 100 µM
TGI (SW-620 colon): > 100 µM
TGI (SK-MEL-5 melanoma): > 100 µM
TGI (CAKI-1 renal): > 100 µM
TGI (K-562 leukemia): > 100 µM
TGI (MCF7 breast): > 100 µM
TGI (SF-268 CNS): > 100 µM

NC(Cc1ccc(OCc2ccccc2)cc1)C(=O)NC(Cc1ccccc1)C(=O)Oc1c(Cl)c(Cl)c(Cl)c(Cl)c1Cl (configuration not stated)
TGI (NCI-H460 lung): 30.5 µM
TGI (NCI/ADR-RES ovarian): 40.7 µM
TGI (HL-60(TB) leukemia): > 100 µM
TGI (SW-620 colon): 31.7 µM
TGI (SK-MEL-5 melanoma): 32.4 µM
TGI (CAKI-1 renal): 30.7 µM
TGI (K-562 leukemia): > 100 µM
TGI (MCF7 breast): 36 µM
TGI (SF-268 CNS): 38.9 µM

O=C1c2cc(Cc3ccccc3)c(=O)c(Cc3ccccc3)cc2C(=O)c2cc(Cc3ccccc3)c(=O)c(Cc3ccccc3)cc21
TGI (NCI-H460 lung): > 100 µM
TGI (NCI/ADR-RES ovarian): > 100 µM
TGI (SF-295 CNS): > 100 µM
TGI (HL-60(TB) leukemia): > 100 µM
TGI (SW-620 colon): > 100 µM
TGI (SK-MEL-5 melanoma): > 100 µM
TGI (CAKI-1 renal): > 100 µM
TGI (K-562 leukemia): > 100 µM
TGI (MCF7 breast): > 100 µM
TGI (SF-268 CNS): > 100 µM

CN1CCN(Cc2c[nH]c3c2C(=O)c2c(c(O)c4ccccc4c2O)C3=O)CC1
GI50 (NCI-H460 lung): 5.42 µM
TGI (NCI-H460 lung): 17.9 µM
GI50 (NCI/ADR-RES ovarian): 11.7 µM
TGI (NCI/ADR-RES ovarian): 25.5 µM
GI50 (SF-295 CNS): 15 µM
TGI (SF-295 CNS): 35.4 µM
GI50 (HL-60(TB) leukemia): 10.3 µM
TGI (HL-60(TB) leukemia): 70.4 µM
GI50 (SW-620 colon): 12.5 µM
TGI (SW-620 colon): 25 µM
GI50 (SK-MEL-5 melanoma): 14 µM
TGI (SK-MEL-5 melanoma): 26.9 µM
GI50 (CAKI-1 renal): 3.16 µM
TGI (CAKI-1 renal): 18.8 µM
GI50 (K-562 leukemia): 2820 nM
TGI (K-562 leukemia): > 100 µM
GI50 (MCF7 breast): 5.15 µM
TGI (MCF7 breast): 17.7 µM
GI50 (SF-268 CNS): 11.1 µM
TGI (SF-268 CNS): 23.2 µM

COc1ccccc1-n1c(=O)n(C)c(=O)n1C(C)(C)C
TGI (NCI-H460 lung): > 100 µM
TGI (NCI/ADR-RES ovarian): > 100 µM
TGI (HL-60(TB) leukemia): > 100 µM
TGI (SW-620 colon): > 100 µM
TGI (SK-MEL-5 melanoma): > 100 µM
TGI (CAKI-1 renal): > 100 µM
TGI (K-562 leukemia): > 100 µM
TGI (MCF7 breast): > 100 µM
TGI (SF-268 CNS): > 100 µM

Cc1nc2cc(F)c(F)cc2[nH]c1=O
TGI (NCI-H460 lung): > 100 µM
TGI (NCI/ADR-RES ovarian): > 100 µM
TGI (SF-295 CNS): > 100 µM
TGI (HL-60(TB) leukemia): > 100 µM
TGI (SW-620 colon): > 100 µM
TGI (SK-MEL-5 melanoma): > 100 µM
TGI (CAKI-1 renal): > 100 µM
TGI (K-562 leukemia): > 100 µM
TGI (MCF7 breast): > 100 µM
TGI (SF-268 CNS): > 100 µM

Cc1cc(C)c2c(c1)CC1(Cc3cc(C)c(C)cc3C1=O)C2=O (configuration not stated)
TGI (NCI-H460 lung): > 100 µM
TGI (NCI/ADR-RES ovarian): > 100 µM
TGI (SF-295 CNS): > 100 µM
TGI (HL-60(TB) leukemia): > 100 µM
TGI (SW-620 colon): > 100 µM
TGI (SK-MEL-5 melanoma): > 100 µM
TGI (CAKI-1 renal): > 100 µM
TGI (K-562 leukemia): > 100 µM
TGI (MCF7 breast): > 100 µM
TGI (SF-268 CNS): > 100 µM

C[C@]12CC[C@H]3[C@@H](CCC4=CC(=O)C=C[C@@]43OC(=O)C(F)(F)F)[C@@H]1CCC2=O
TGI (NCI-H460 lung): > 100 µM
TGI (NCI/ADR-RES ovarian): > 100 µM
TGI (SF-295 CNS): > 100 µM
TGI (HL-60(TB) leukemia): > 100 µM
TGI (SW-620 colon): > 100 µM
TGI (SK-MEL-5 melanoma): > 100 µM
TGI (CAKI-1 renal): > 100 µM
TGI (K-562 leukemia): > 100 µM
TGI (MCF7 breast): > 100 µM
TGI (SF-268 CNS): > 100 µM

CC1CC[C@@]2(OC1)O[C@H]1[C@H](O)[C@H]3[C@@H]4CC[C@H]5C[C@@H](OC6OC(CO)C(OC7OC(CO)C(O)C(OC8OCC(O)C(O)C8O)C7OC7OC(CO)C(O)C(O)C7OC7OC(CO)C(O)C(O)C7O)C(O)C6O)[C@H](O)C[C@]5(C)[C@H]4CC[C@]3(C)[C@H]1[C@@H]2C (some centres not stated)
TGI (NCI-H460 lung): > 10 µM
TGI (NCI/ADR-RES ovarian): > 10 µM
TGI (HL-60(TB) leukemia): 3.08 µM
TGI (SW-620 colon): > 10 µM
TGI (SK-MEL-5 melanoma): > 10 µM
TGI (CAKI-1 renal): > 10 µM
TGI (K-562 leukemia): > 10 µM
TGI (MCF7 breast): 7.71 µM
TGI (SF-268 CNS): > 10 µM
